The source of these data is PMC5216056 (Nature Communications, 2017).

Data set [1] deals with T1, hCB2R (Homo sapiens, UniProt P34972). In words: biochemical. The class given is biochemical. Set-up: expressed in transfected cells; host or cells: Flp-In-293 (Invitrogen #R750-07), pcDNA5/FRT.
The target in data set [2] is T1, hCB2R. In words: cell-based. The format is cell-based.
In data set [3] the target is T1, hCB2R. Description: cell-based. The format is cell-based. Set-up: expressed in transfected cells; host or cells: Flp-In-293 (Invitrogen #R750-07), pcDNA5/FRT.
The next data set has as its target T2, 5-HT2B (h) (Homo sapiens, UniProt P41595).
T2 construct: CEREP (contract assay)
In words: CEREP panel. The format is binding. The note with it: 10 µM.

The subject of data set [4] is AEA reuptake in HaCaT cells. In words: cells. The class given is cell-based, human.
For another data set, the target named is T3, human NAPE-PLD (Homo sapiens, UniProt Q6IQ20).
T3 construct: Full length human cDNA NAPE-PLD was obtained from Natsuo Ueda; expressed in transfected cells; host or cells: HEK293T (transient), membrane fraction
Description: NAPE-PLD inhibition. The class given is biochemical. The note with it: 10 µM. Summed up:
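Membrane fraction from HEK293T cells transiently expressing Flag-tagged full-length human NAPE-PLD, 0.04 mg ml^−1 final, preincubated with compound 30 min at 37 °C in 50 mM Tris-HCl pH 7.5, 0.02% Triton X-100, 150 mM NaCl. Fluorogenic substrate at 1 μM final; fluorescence (ex 485/em 535 nm) read every 2 min for 1 h at 37 °C, background-subtracted.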

A further data set addresses T4, GR (h) (Homo sapiens, UniProt P04150).
T4 construct: CEREP (contract assay)
T4 sequence (P04150 1-777): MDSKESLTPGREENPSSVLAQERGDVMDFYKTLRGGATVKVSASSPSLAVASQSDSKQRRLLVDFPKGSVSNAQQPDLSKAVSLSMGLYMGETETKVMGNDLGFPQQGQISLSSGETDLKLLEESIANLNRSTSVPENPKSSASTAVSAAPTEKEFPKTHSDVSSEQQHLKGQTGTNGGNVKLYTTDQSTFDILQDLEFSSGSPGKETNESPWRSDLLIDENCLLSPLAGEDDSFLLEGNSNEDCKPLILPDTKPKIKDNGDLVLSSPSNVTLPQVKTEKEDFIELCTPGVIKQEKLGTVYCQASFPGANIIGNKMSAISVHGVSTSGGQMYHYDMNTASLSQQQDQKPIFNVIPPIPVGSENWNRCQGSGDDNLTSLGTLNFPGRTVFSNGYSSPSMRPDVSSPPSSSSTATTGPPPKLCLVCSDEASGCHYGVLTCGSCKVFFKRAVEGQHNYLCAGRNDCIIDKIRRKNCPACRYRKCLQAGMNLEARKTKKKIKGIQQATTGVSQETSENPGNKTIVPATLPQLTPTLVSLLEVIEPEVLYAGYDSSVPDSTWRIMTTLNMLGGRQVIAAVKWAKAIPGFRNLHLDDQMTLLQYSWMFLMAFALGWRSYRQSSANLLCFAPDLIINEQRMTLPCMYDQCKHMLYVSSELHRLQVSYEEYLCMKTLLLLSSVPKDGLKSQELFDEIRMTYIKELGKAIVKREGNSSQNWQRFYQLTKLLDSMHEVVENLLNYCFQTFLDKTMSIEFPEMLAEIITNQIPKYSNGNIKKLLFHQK
In words: CEREP panel. The conditions noted are these: 10 µM. The format is binding.

Another data set addresses mCB2R (Mus musculus, UniProt P47936). Description: biochemical. The class given is biochemical. More on the design: from tissue; host or cells: spleen of male C57BL/6J mice.

Sequence of mCB2R (P47936 whole entry): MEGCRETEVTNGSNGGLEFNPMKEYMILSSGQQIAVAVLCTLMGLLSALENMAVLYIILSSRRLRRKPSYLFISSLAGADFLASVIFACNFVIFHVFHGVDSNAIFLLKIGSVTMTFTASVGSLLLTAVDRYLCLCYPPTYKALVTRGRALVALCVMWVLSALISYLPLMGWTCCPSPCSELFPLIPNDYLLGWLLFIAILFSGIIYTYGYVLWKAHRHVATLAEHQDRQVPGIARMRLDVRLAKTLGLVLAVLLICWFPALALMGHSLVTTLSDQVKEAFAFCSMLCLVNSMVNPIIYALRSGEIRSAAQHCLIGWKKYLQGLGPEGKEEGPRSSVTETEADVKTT
T1 sequence (P34972 whole entry): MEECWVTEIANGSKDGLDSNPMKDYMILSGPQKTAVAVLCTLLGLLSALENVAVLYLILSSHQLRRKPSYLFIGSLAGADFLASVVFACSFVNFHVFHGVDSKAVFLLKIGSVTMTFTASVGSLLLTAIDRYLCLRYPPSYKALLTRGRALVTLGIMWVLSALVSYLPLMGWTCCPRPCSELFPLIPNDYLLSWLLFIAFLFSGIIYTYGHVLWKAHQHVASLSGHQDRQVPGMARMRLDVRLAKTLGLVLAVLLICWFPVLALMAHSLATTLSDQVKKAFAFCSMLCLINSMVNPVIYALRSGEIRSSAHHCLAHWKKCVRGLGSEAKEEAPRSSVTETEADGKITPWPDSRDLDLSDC
T3 sequence (Q6IQ20 whole entry): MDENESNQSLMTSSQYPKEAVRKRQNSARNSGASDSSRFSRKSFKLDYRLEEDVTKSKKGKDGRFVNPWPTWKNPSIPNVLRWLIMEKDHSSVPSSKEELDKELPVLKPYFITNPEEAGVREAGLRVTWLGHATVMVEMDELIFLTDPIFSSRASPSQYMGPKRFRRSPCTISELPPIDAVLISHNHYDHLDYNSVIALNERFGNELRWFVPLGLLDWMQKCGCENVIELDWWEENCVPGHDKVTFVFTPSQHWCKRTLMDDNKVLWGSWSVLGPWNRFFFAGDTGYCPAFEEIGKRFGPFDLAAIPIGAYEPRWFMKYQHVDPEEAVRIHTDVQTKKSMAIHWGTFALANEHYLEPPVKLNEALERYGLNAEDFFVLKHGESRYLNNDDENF
T2 sequence (P41595 whole entry): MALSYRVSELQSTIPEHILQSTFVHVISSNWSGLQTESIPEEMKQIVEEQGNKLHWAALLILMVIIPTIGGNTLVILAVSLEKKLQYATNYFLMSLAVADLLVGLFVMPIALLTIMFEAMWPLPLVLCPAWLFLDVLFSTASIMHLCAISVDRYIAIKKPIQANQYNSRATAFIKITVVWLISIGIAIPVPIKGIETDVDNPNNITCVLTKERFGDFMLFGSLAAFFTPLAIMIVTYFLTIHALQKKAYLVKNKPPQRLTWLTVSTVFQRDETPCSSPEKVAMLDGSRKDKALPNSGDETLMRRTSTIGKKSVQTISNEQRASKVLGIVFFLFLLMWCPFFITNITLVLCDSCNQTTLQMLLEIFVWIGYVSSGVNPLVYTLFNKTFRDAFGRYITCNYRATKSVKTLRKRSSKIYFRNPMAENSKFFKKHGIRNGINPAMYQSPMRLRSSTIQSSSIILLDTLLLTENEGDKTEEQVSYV

The IC50 is the concentration needed to halve the response being measured. In the case of `CN1CCCC[C@H]1Cn1cc(C(=O)c2cc([N+](=O)[O-])ccc2I)c2ccccc21` [(S)-AM1241], on hCB2R [1], the “Emax ± SEM GTPγS hCB2R” value came to 47 ± 5. On hCB2R [2], the “Emax ± SEM β-AR recruitment hCB2R” value came out at 29 ± 8 and the “pEC50 ± SEM β-AR recruitment hCB2R” value amounted to 6.54 ± 0.44. At hCB2R [3], the “Emax ± SEM cAMP hCB2R” value was determined as 78 ± 1 and the “pEC50 ± SEM cAMP hCB2R” value turned out to be 7.40 ± 0.11. Besides, the “% inhibition 5-HT2B (h)” value on 5-HT2B (h) worked out at 93%. Further, the “AEA reuptake Efficacy (% inhibition) HaCaT cells” value in [4] (from dose-response) was 90%. Also, the IC50 in data set [4] (read-out: AEA reuptake IC50 (95% CI) HaCaT cells) is 4.49 µM. Also, the “NAPE-PLD % inhibition at 10 µM ± SD” value on human NAPE-PLD is recorded as 33 ± 7%. Under “PAMPA”, this compound registered a Pct acceptor of 2.2% and a Pct donor of 34%. This compound also had a Pct membrane (PAMPA, compound found in membranes) of 64%. The “Pampa Peff” value (membrane permeation coefficient) is recorded as 1.41 cm/s*10-6. Besides, at GR (h), the “% inhibition GR (h)” value was determined as 10%. For the same compound, the “Emax cAMP mCB2R” value on mCB2R is reported as 35. For the same compound, the “CB2R Selectivity cAMP (mouse)” value at mCB2R (10^(pEC50 CB2R-pEC50 CB1R)) turned out to be 148 fold. Moreover, the “pEC50 ± SEM cAMP mCB2R” value at mCB2R (mouse spleen) was 7.6 ± 0.3.
